Experiment in all cases: biochemical
Experiment [1] has as its target T1, ZmDRIK1 (DROUGHT RESPONSIVE INACTIVE KINASE 1), kinase domain (Zea mays, UniProt C0P4K9).
T1 construct: gene ZEAMMB73_Zm00001d028770; ZmDRIK1-KD R187-S514 (kinase domain)
T1 sequence (C0P4K9 187-514): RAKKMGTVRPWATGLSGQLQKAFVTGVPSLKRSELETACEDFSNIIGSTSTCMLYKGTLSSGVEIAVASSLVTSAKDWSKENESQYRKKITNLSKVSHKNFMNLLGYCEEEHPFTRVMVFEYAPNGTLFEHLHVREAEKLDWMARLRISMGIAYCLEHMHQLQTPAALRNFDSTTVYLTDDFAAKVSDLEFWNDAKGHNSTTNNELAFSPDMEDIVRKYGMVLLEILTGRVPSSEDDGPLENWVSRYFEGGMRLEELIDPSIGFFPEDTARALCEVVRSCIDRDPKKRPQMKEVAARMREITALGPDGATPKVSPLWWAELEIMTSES
Particulars: read-out: dTm B, sheet ZmDRIK1-R187-S514;; DSF, Boltzmann fit, 0.1% DMSO.

For the next experiment, the target named is T2, ZmDRIK1-K217-P492 (Zea mays, UniProt C0P4K9).
T2 construct: kinase domain, K217-P492
T2 sequence (C0P4K9 1-514): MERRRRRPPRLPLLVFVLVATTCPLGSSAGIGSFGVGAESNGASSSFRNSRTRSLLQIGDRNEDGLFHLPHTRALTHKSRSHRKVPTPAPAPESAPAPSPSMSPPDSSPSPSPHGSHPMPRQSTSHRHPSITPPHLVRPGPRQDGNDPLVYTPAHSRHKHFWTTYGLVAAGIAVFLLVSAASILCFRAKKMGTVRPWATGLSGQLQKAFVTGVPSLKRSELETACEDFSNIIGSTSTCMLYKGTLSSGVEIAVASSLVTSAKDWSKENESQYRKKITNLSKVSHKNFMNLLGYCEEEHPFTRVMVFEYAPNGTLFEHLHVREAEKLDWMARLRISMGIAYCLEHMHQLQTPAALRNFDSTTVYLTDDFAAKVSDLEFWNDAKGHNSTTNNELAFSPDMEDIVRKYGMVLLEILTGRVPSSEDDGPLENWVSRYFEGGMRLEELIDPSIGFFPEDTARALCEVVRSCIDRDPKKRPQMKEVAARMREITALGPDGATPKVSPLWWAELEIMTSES
The settings on record: read-out: dTm B, sheet ZmDRIK1-K217-P492;; DSF, Boltzmann fit, 0.1% DMSO.

The target in a further experiment is T3, ZmDRIK1-R187-P492 (Zea mays, UniProt C0P4K9).
T3 construct: kinase domain, R187-P492
T3 sequence (C0P4K9 1-514): T2 sequence (C0P4K9 1-514)
Particulars: read-out: dTm B, DSF, Boltzmann fit, 0.1% DMSO.

The target in a further experiment is T4, ZmDRIK1-K217-S514 (Zea mays, UniProt C0P4K9).
T4 construct: kinase domain, K217-S514
T4 sequence (C0P4K9 1-514): T2 sequence (C0P4K9 1-514)
The settings on record: read-out: dTm B, sheet ZmDRIK1-K217-S514;; DSF, Boltzmann fit, 0.1% DMSO.

The structures appear in SMILES notation. Structures can show the parent of a compound that is named as a salt.

Turning to `CCC(=O)Nc1cccc(Oc2nc(Nc3ccc(N4CCN(C)CC4)cc3OC)ncc2Cl)c1` [WZ4003], the ΔTm at 10 µM in experiment [1] was -0.786 °C; on ZmDRIK1-K217-P492, -1.1 °C; at ZmDRIK1-R187-P492 it was -0.432 °C; on ZmDRIK1-K217-S514, -0.358 °C.
Turning to `O=C1c2ccc(Nc3ccc(F)cc3F)cc2CCc2ccc(OC[C@H](O)CO)cc21` [Skepinone-L], the ΔTm at 10 µM in experiment [1] was -0.803 °C; on ZmDRIK1-K217-P492 it was -0.992 °C; at ZmDRIK1-R187-P492, -0.481 °C; on ZmDRIK1-K217-S514 it was -0.642 °C.
As to `O=C(O)[C@]1(Cc2cccc(Nc3nccs3)n2)CC[C@@H](Oc2cccc(Cl)c2F)CC1` [MK-5108 (VX-689)], the ΔTm at 10 µM is -1.14 °C in experiment [1], -0.754 °C on ZmDRIK1-K217-P492, -0.282 °C on ZmDRIK1-R187-P492 and -0.299 °C at ZmDRIK1-K217-S514.
Consider `Cc1cc([C@@H](C)Nc2ccccc2C(=O)O)c2nc(N3CCOCC3)cc(=O)n2c1` [AZD6482], for which the ΔTm at 10 µM in experiment [1] was -0.715 °C; on ZmDRIK1-K217-P492 it was -1.04 °C; on ZmDRIK1-R187-P492, -0.2 °C; at ZmDRIK1-K217-S514 it was -0.29 °C.
The like results for `C1=N/C2=N/c3ccc(OCCN4CCCC4)c(c3)COC/C=C/COCc3cccc(c3)C(=C1)N2` [Pacritinib (SB1518)] were, in that order, 0.0273 °C, 1.04 °C, -0.0853 °C and 0.03 °C.
The like results for `COC(=O)c1ccc2c(c1)NC(=O)/C2=C(\Nc1ccc(N(C)C(=O)CN2CCN(C)CC2)cc1)c1ccccc1` [Nintedanib (BIBF 1120)] were, in that order, -0.677 °C, -1.32 °C, -0.154 °C and -0.223 °C.
The like results for `CCCCCCCCc1ccc(CCC(N)(CO)CO)cc1` [Fingolimod (FTY720) HCl] were, in that order, -0.542 °C, -1.47 °C, -0.447 °C and -0.608 °C.
In the case of `Cc1nc(NC(=O)N2CCC[C@H]2C(N)=O)sc1-c1csc(C(C)(C)C)n1` [A66], the ΔTm at 10 µM in experiment [1] was -0.746 °C; on ZmDRIK1-K217-P492, -0.988 °C; on ZmDRIK1-R187-P492 it was -0.295 °C; on ZmDRIK1-K217-S514, -0.323 °C.
The like results for `Cc1cnc(-c2cnc(NCCNc3ccc(C#N)cn3)nc2-c2ccc(Cl)cc2Cl)[nH]1` [CHIR-99021 (CT99021) HCl] were, in that order, -0.639 °C, -0.928 °C, -0.404 °C and -0.494 °C.
The like results for `C=CC(=O)N1CCN(c2nc(=O)n(-c3c(C)ccnc3C(C)C)c3nc(-c4c(O)cccc4F)c(F)cc23)[C@@H](C)C1` [K-Ras(G12C) inhibitor 9] were, in that order, -0.658 °C, -0.935 °C, -0.298 °C and -0.321 °C.
`O=C(c1cccc(Cl)c1F)N1CCN(Cc2cccc(Nc3nccs3)n2)CC1` [MK-8745]: the ΔTm at 10 µM in experiment [1] is 0.487 °C; on ZmDRIK1-K217-P492 it was 0.174 °C; on ZmDRIK1-R187-P492, 0.983 °C; on ZmDRIK1-K217-S514, 0.891 °C.
The like results for `OCCn1cc(-c2cnc3nnn(Cc4ccc5ncccc5c4)c3n2)cn1` [PF-04217903] were, in that order, -0.576 °C, -0.909 °C, -0.0503 °C and -0.0615 °C.
The like results for `COc1ccc(COc2cc3oc(=O)c4cc(C(C)O)ccc4c3cc2OC)cc1` (stereo not drawn) [Palomid 529 (P529)] were, in that order, -0.623 °C, -0.76 °C, -0.229 °C and -0.134 °C.
The like results for `NC(=O)c1ccc(N(C(N)=O)c2c(F)cccc2F)nc1-c1ccc(F)cc1F` [VX-702] were, in that order, -0.444 °C, -0.792 °C, -0.499 °C and -0.374 °C.
On to `NC(=O)c1ncn([C@@H]2O[C@H](CO)[C@@H](O)[C@H]2O)c1N` [Acadesine], for which the ΔTm at 10 µM in experiment [1] is -0.564 °C; on ZmDRIK1-K217-P492 it was -0.691 °C; on ZmDRIK1-R187-P492, -0.0339 °C; on ZmDRIK1-K217-S514, -0.387 °C.
The like results for `N#Cc1c(NC(=O)c2cccc3ccccc23)sc2c1CCCC2` [JNK Inhibitor IX] were, in that order, -1.05 °C, -1.09 °C, -0.365 °C and -0.601 °C.
The like results for `CN(C)C/C=C/C(=O)Nc1cc2c(Nc3ccc(F)c(Cl)c3)ncnc2cc1O[C@H]1CCOC1` [Afatinib (BIBW2992)] were, in that order, -0.728 °C, -1.3 °C, -0.346 °C and -0.623 °C.
The like results for `Cc1ccc(NC(=O)c2cccc(N(C)C)c2)cc1NC(=O)c1ccc(O)cc1` [ZM 336372] were, in that order, -1 °C, -0.965 °C, -0.214 °C and -0.418 °C.
With `Oc1ccc(-c2nc(-c3ccc(F)cc3)c(-c3ccncc3)[nH]2)cc1` [SB202190 (FHPI)], the ΔTm at 10 µM was 0.194 °C in experiment [1], 1.22 °C at ZmDRIK1-K217-P492, -18.3 °C at ZmDRIK1-R187-P492 and 2.58 °C at ZmDRIK1-K217-S514.
The like results for `NC(=O)c1cnc(N[C@@H]2CCCC[C@@H]2N)nc1Nc1cccc(-n2nccn2)c1` [PRT062607 (P505-15)] were, in that order, -0.709 °C, -0.348 °C, -0.212 °C and -0.551 °C.
The like results for `Cc1cc(Nc2cc(N3CCN(C)CC3)nc(Sc3ccc(NC(=O)C4CC4)cc3)n2)n[nH]1` [VX-680 (Tozasertib)] were, in that order, -0.713 °C, -1.16 °C, -0.37 °C and -0.694 °C.
Turning to `CCCCCCCCCCCCc1ccc(S(=O)(=O)Nc2nncs2)cc1` [PHT-427], the ΔTm at 10 µM in experiment [1] was -1.24 °C; at ZmDRIK1-K217-P492, -1.79 °C; on ZmDRIK1-R187-P492 it was -0.255 °C; on ZmDRIK1-K217-S514, -0.296 °C.
The like results for `N#Cc1c(O)c2c(-c3ccc(-c4ccccc4O)cc3)csc2[nH]c1=O` [A-769662] were, in that order, -1.11 °C, -1.24 °C, -0.292 °C and -0.453 °C.
The like results for `Cc1nc(NC(=O)N2CCC[C@H]2C(N)=O)sc1-c1ccnc(C(C)(C)C(F)(F)F)c1` [BYL719] were, in that order, -0.448 °C, -0.718 °C, -0.328 °C and -0.465 °C.
`CCN1CCN(Cc2ccc(Nc3ncc(F)c(-c4cc(F)c5nc(C)n(C(C)C)c5c4)n3)nc2)CC1` [LY2835219]: the ΔTm at 10 µM is -0.878 °C in experiment [1], -0.986 °C at ZmDRIK1-K217-P492, -0.433 °C at ZmDRIK1-R187-P492 and -0.201 °C at ZmDRIK1-K217-S514.
The like results for `Cc1ccc(C(=O)Nc2ccc(CN3CCN(C)CC3)c(C(F)(F)F)c2)cc1C#Cc1cnc2[nH]ncc2c1` [GZD824] were, in that order, -1.61 °C, -4.57 °C, -0.305 °C and 0.363 °C.
In the case of `CC(C)(C)c1cc(/C=C(\C#N)C(N)=S)cc(C(C)(C)C)c1O` [Tyrphostin AG 879], the ΔTm at 10 µM was -0.339 °C in experiment [1], -0.358 °C at ZmDRIK1-K217-P492, -0.277 °C on ZmDRIK1-R187-P492 and 0.259 °C on ZmDRIK1-K217-S514.
With `Cc1cc2c(F)c(Oc3ncnn4cc(OC[C@@H](C)OC(=O)[C@H](C)N)c(C)c34)ccc2[nH]1` [Brivanib Alaninate (BMS-582664)], the ΔTm at 10 µM in experiment [1] is -1.08 °C; on ZmDRIK1-K217-P492, -1 °C; on ZmDRIK1-R187-P492 it was -0.504 °C; at ZmDRIK1-K217-S514 it was -0.426 °C.
The like results for `O=C1Nc2ccc(I)cc2/C1=C/c1cc(Br)c(O)c(Br)c1` [GW5074] were, in that order, -0.178 °C, -0.0461 °C, -0.306 °C and 0.341 °C.
The like results for `CC(C)(C)Cn1c(N)nc2ccc(-c3[nH]c(C(C)(C)C)nc3-c3ccc(F)cc3)nc21` [LY2228820] were, in that order, -0.95 °C, -0.453 °C, -0.267 °C and -0.619 °C.

The values above are taken from publication PMC7158045 (BMC Plant Biology, 2020).
